Measurements: patent US8853373B2, “Method and reagent for gene sequence analysis” (Hitachi, Ltd., priority 2009, dated 2014)

Key:
[1] = test system: DNA Sequence S2; experiment: Sequence analysis by stepwise chemical reaction (pyrogram), PPDK system, Condition 4; format: biochemical; conditions: DNA Sequence S2 (3 consecutive nucleotides)
Protocol: Therefore, a sequence having 3 consecutive nucleotides of T was analyzed for comparison. Analyzed DNA Sequence S2 and a primer P3 are described below.
Of note is that Sequence P3 represents a primer sequence. This primer can complementarily bind to the underlined portion of the above DNA Sequence S2. FIGS. 16 to 20 show the results of a sequence analysis. In addition, the reagent conditions were listed together in the following Table 3.
In this experiment, an enzyme system which converts PPi into ATP has employed an enzyme system in which PPi and AMP are converted into ATP by PPDK as described in the conventional technique (Patent Literature 4). The items of the figure are identical to those of FIG. 15. At the bottom of the respective figures, the injected nucleotide types are designated. At the top, the nucleotide types which have been incorporated into a complementary DNA sequence of analysis object are designated. The substrate was injected in the order of “bases A, T, C, and G”, and 7 cycles were analyzed. As indicated in the target sequence, in this analysis, two regions (Cycle 4 and Cycle 7) having 3 consecutive nucleotides of A incorporated are present. Because of this, a difference in the ability of continuous incorporation of a nucleic acid substrate that is used as a nucleotide A can be assessed. Hereinafter, the details are described.
First, three kinds of the substrates (A3d, dATPαS, and C^7dATP) having the final concentration of 2 μM were used. The results of a sequence analysis will be described (FIGS. 16 to 20). […] At the time of dispensing A (surrounded by the circle ◯) which represented the injected nucleotide type, A3d was used. […] Accordingly, as the signal corresponding to A at the first cycle indicated, background luminescence was observed. Due to this phenomenon, the luminescence signal corresponding to nucleotide A constantly included the increased background luminescence. The symbol • in the figure denotes elongation luminescence corresponding to a nucleotide sequence of a sample. In contrast, the major luminescence without corresponding to the nucleotide sequence is represented by the symbol ∇. […] At the time of dispensing A (surrounded by the circle ◯) which represented the injected nucleotide type, dATPαS was used. The resulting pyrogram and the nucleotide sequence of a sample were compared. The symbol • in the figure denotes elongation luminescence corresponding to a nucleotide sequence of a sample. In contrast, the major luminescence without corresponding to the nucleotide sequence is represented by the symbol ∇. […] At the time of dispensing A (surrounded by the circle ◯) which represented the injected nucleotide type, C^7dATP was used. […] Accordingly, as the signal corresponding to A at the first cycle indicated, big background luminescence was observed. Due to this phenomenon, the luminescence signal corresponding to nucleotide A constantly included the increased background luminescence. The symbol x in the figure denotes just a background luminescence signal. The symbol • denotes elongation luminescence corresponding to a nucleotide sequence of a sample. However, the symbol (•) denotes inclusion of both elongation-derived luminescence and background luminescence. In contrast, the major luminescence without corresponding to the nucleotide sequence is represented by the symbol ∇.

[2] = biological target: luciferase (Photinus pyralis, UniProt P08659); experiment: Evaluation of substrate specificity for luciferase (luminescence on dispensing the substrate); format: biochemical; conditions: for Substrate specificity (S) for luciferase, relative to that of ATP: amount of luminescence per unit concentration, substrate specificity of ATP normalized as 1
Chain of luciferase (P08659 whole entry, species assumed): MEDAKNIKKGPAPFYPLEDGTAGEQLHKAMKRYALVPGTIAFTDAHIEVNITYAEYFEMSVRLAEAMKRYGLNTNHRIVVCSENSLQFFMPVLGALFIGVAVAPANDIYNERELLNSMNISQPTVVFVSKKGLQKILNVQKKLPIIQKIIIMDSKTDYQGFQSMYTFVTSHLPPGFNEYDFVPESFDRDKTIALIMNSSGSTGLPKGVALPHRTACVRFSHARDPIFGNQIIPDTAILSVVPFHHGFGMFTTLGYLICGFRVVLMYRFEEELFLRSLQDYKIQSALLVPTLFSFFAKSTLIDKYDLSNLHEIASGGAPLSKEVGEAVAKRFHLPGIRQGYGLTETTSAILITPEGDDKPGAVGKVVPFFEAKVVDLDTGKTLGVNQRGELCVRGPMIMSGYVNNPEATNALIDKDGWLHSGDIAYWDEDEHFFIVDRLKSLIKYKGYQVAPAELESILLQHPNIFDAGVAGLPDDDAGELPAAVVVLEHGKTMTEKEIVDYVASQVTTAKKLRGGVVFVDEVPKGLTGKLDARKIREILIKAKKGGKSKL
Protocol: In respect to the nucleic acid substrates synthesized, whether or not the substrates became a substrate for luciferase was evaluated by the following procedure. First, a luminescence reagent designated in Condition 1 of Table 1 was prepared.
Next, a reaction solution was prepared using 20 μL of this luminescence reagent, and 0.2 μL of a nucleic acid substrate of evaluation subject was injected. Then, luminescence emitted at this occasion was estimated. FIG. 6 is a graph showing the amount of luminescence when ATP, dATP, C^7dATP, and dATPαS are each dispensed as a substrate. The abscissa (C) indicates a final concentration of the compound in a reaction reagent. For example, when 0.2 μl of 1 μM substrate is dispensed, the final concentration is about 0.01 μM. An amount of luminescence (U) indicated in the ordinate was plotted by normalizing the amount of luminescence at 0.01 μM of ATP as 1. From this graph, the amount of luminescence (U) is found to be proportional to the final concentration (C). Because of this, as a substrate specificity (or substrate reactivity) for luciferase, the value (S) indicating the amount of luminescence per unit concentration is defined as described below. Substrate specificity (S)≡Amount of luminescence (U)/Final concentration (C)[μM]×0.01 (In this Definition, the Substrate Specificity of ATP is Normalized as 1).
The four points designated in the left side of the graph indicate each substrate specificity (S) of ATP, dATP, dATPαS, and C^7dATP. For a sequencing method using a stepwise chemical reaction represented by pyrosequencing, the amount of ATP generated from pyrophosphate produced in elongation of one nucleotide is equivalent to the amount of a target present in a reaction solution when all of the targets have been elongated. In addition, elongation of a plurality of nucleotides causes the amount to be multiplied by the number of the nucleotides. Generally speaking, the amount of a nucleic acid substrate which should be dispensed per reaction for sequencing requires about 100 times the amount of the target for analysis. This is because a sequenced region may sometimes contain about 10 consecutive identical nucleotides; and a reaction solution for this sequencing method has a substrate-degrading enzyme together, so that the nucleic acid elongation and substrate degradation are competed. Shortage of the substrates causes incomplete elongation, so that the following sequence analysis cannot be carried out. […] As a countermeasure against it, the substrate having about 100 times the target amount which has been generally used is preferably dispensed per reaction.
In this Example, the synthesized nucleic acid substrates were purified by liquid chromatography. However, removal of pyrophosphate that had been incorporated during the synthesis may be insufficiently carried out only by liquid chromatography-mediated purification. At that occasion, the present inventors treated the synthesized nucleic acid substrates by a pyrophosphate-degrading enzyme (PPase) to decompose the pyrophosphate. Specifically, the synthesized nucleic acid substrate was diluted in a reaction solution (100 mM Tris-Acetate, 0.5 mM EDTA, 5 mM Mg-Acetate, 1 mM DTT, pH 7.5) at a concentration of 500 μM. Then, PPase was added at 0.2 mU/μL, and the mixture was reacted at 30° C. for 30 minutes, which caused degradation of pyrophosphate in the solution. This method represents one example. […]

[3] = final concentration 2 μM, 7 cycles

| SMILES | Sequence analysis result as substitute for dATP [1, 3] | Substrate specificity for luciferase compared with that of dATPαS ([2]; FIG. 7) | Substrate specificity (S) for luciferase, relative to that of ATP [2] | Sequence analysis result as substitute for dATP ([1]; final concentration 4 μM) |
| --- | --- | --- | --- | --- |
| Nc1ncnc2c1c(/C=C/C(=O)NCCc1ccncc1)cn2[C@H]1CC(O)[C@@H](COP(=O)(O)OP(=O)(O)OP(=O)(O)O)O1 (stereo partly drawn) [A3d] | up to the nucleotide G at Cycle 7, a sequence analysis was found to be able to be definitely carried out | about one order higher | 1/1000 | – |
| Nc1ncnc2c1ncn2[C@H]1C[C@H](O)[C@@H](COP(O)(=S)OP(=O)(O)OP(=O)(O)O)O1 (stereo partly drawn) [dATPαS] | incomplete elongation was able to be presumed to occur | – | 1/10000 | the incomplete elongation is not completely resolved |
